Eight molecules from the supplement of paper PMC11061612 can be followed below.

Holding throughout (experiment): Bliss excess, mean over the matrix (fraction); higher = more synergy
One assay deals with GOTO (Neuroblastoma). A digest of the protocol:
(§1)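 Cell lines grown in DMEM/F12 or RPMI with 10% FBS were plated in 1536-well plates and held 24 hours at 37°C, 5% CO2 before 72 hours of exposure to two-drug dose matrices, with DMSO typically at 0.2%. CellTiter-Glo 2.0 luminescence gave viability, which was converted to inhibition. Vehicle wells were set to 0 and blank wells to 1. Combination Emax is the second-highest inhibition in the matrix, and Bliss excess is the observed combination effect minus the expected EA + EB − EA·EB, where EA and EB are the single-agent effects.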

Assay [1] concerns KYSE-150 (Esophageal Squamous Cell Carcinoma). A digest of the protocol: as §1
Assay [2] has as its system KLE (Endometrial Carcinoma). Put shortly: as §1
In assay [3] the test system is HuP-T3 (Pancreatic Carcinoma). Put shortly: as §1
In assay [4] the test system is NCI-H2347 (Lung Adenocarcinoma). A digest of the protocol: as §1
In assay [5] the test system is KYSE-50 (Esophageal Squamous Cell Carcinoma). Put shortly: as §1
The subject of assay [6] is EMC-BAC-2 (Non-Small Cell Lung Carcinoma). Put shortly:
as §1

Assay [7] relates to KU-19-19 (Bladder Carcinoma). A digest of the protocol: as §1
Assay [8] concerns SCC-3 (B-Cell Non-Hodgkin's Lymphoma). Put shortly:
as §1

The subject of the next assay is EW-13 (Ewing's Sarcoma). Put shortly:
as §1

Assay [9] concerns EBC-1 (Squamous Cell Lung Carcinoma). Put shortly:
as §1

In assay [10] the test system is OVISE (Ovarian Carcinoma). A digest of the protocol: as §1
In the next assay the test system is NH-12 (Neuroblastoma). Put shortly:
as §1

In assay [11] the test system is KINGS-1 (Low Grade Glioma). A digest of the protocol: as §1

`COc1nnc2ccc(N3CCC(c4ccc(OCCN5CCN(C)C(=O)[C@H]5C)cc4)CC3)nn12` [AZD5153] + Cc1c2c(nn1C)CSCc1cc(n(C)n1)CSc1cc(c3ccccc3c1)OCCCc1c(C(=O)O)n(C)c3c-2c(Cl)ccc13 [AZD5991] (first compound max 1 µM, 7x7, partner max 1 µM): the Bliss excess is -0.0096 with GOTO (Neuroblastoma); -0.0732 in assay [1]; -0.0228 in assay [2]; 0.0051 in assay [3]; -0.0198 in [4]; 0.0144 in [5]. Further, the Bliss excess in assay [6] is -0.0589; in [7] it was -0.0634; in assay [8], 0.029; in the assay on EW-13 (Ewing's Sarcoma), -0.0502; in assay [9], -0.0528; in assay [10], -0.039. Further, the Bliss excess in the assay on NH-12 (Neuroblastoma) is -0.0206; in assay [11] it was -0.0146.

Turning to `CN(CCO)CC[C@H](CSc1ccccc1)Nc1ccc(S(=O)(=O)NC(=O)c2ccc(N3CCC([C@@H](O)c4ccccc4-c4ccc(Cl)cc4)CC3)cc2)cc1S(=O)(=O)C(F)(F)F` [AZD4320] + Cn1cnc2c(F)c(Nc3ccc(Br)cc3Cl)c(C(=O)NOCCO)cc21 [Selumetinib] (first compound max 1 µM, 7x7, partner max 3 µM), the Bliss excess in the assay with GOTO (Neuroblastoma) is 0.13; in [1], -0.0152; in assay [2] it was 0.0087; in [3] it was -0.0166; in assay [4] it was 0.0288; in assay [5], 0.0405. The Bliss excess in assay [6] was 0.0022; in [7], 0.0193; in assay [8] it was 0.0222; in the assay on EW-13 (Ewing's Sarcoma) it was -0.0149; in assay [9] it was 0.0478; in assay [10], 0.024. In addition, the Bliss excess in the assay on NH-12 (Neuroblastoma) is 0.0593; in assay [11], 0.0328.

Consider `CC1(C)CCC(CN2CCN(c3ccc(C(=O)NS(=O)(=O)c4ccc(NCC5CCOCC5)c([N+](=O)[O-])c4)c(Oc4cnc5[nH]ccc5c4)c3)CC2)=C(c2ccc(Cl)cc2)C1` [Venetoclax] + C=CCn1c(=O)c2cnc(Nc3ccc(N4CCN(C)CC4)cc3)nc2n1-c1cccc(C(C)(C)O)n1 [AZD1775] (first compound max 1 µM, partner max 1 µM), for which the Bliss excess with GOTO (Neuroblastoma) was 0.0047; in assay [1], -0.0452; in assay [2], -0.0043; in [3] it was -0.112; in assay [4], -0.0762; in [5] it was -0.0395. The Bliss excess in [6] is -0.0562; in [7] it was -0.023; in assay [8], -0.0024; in the assay with EW-13 (Ewing's Sarcoma), -0.0523; in assay [9], 0.0315; in assay [10], -0.0676. For the same molecule, the Bliss excess with NH-12 (Neuroblastoma) turned out to be 0.0148; in assay [11] it was 0.0375.

Regarding `CN(C)CCCOc1ccc(-c2ccc3ncc4c(c3c2)n(C2CCOCC2)c(=O)n4C)cn1` [AZD0156] + C=CCn1c(=O)c2cnc(Nc3ccc(N4CCN(C)CC4)cc3)nc2n1-c1cccc(C(C)(C)O)n1 [AZD1775] (first compound max 1 µM, partner max 1 µM), the Bliss excess with GOTO (Neuroblastoma) was 0.0051; in [1], -0.0386; in assay [2] it was 0.0559; in assay [3] it was -0.051; in [4], -0.0627; in assay [5], -0.0116. Moreover, the Bliss excess was -0.0289 in assay [6]; -0.0043 in assay [7]; -0.0162 in assay [8]; 0.0215 in the assay with EW-13 (Ewing's Sarcoma); -0.0603 in assay [9]; -0.0374 in [10]. Also, the results for the Bliss excess (in the assay on NH-12 (Neuroblastoma); in assay [11]) were -0.0406 and -0.0779, respectively.

On to `CCN(CCO)CCCOc1ccc2c(Nc3cc(CC(=O)Nc4cccc(F)c4)[nH]n3)ncnc2c1` [AZD2811] + C[C@@H]1COCCN1C2=NC(=NC(=C2)C3(CC3)[S@](=N)(=O)C)C4=C5C=CNC5=NC=C4 [AZD6738] (first compound max 1 µM, 7x7, partner max 10 µM), for which the Bliss excess in the assay with GOTO (Neuroblastoma) was 0.027; in [1], -0.0466; in [2] it was -0.0262; in [3] it was -0.067; in [4], -0.0319; in assay [5], -0.051. Besides, the Bliss excess in [6] was -0.0939; in assay [7], -0.0384; in assay [8], 0.0411; in the assay with EW-13 (Ewing's Sarcoma), -0.0257; in [9] it was -0.0182; in assay [10], -0.0542. Besides, the Bliss excess in the assay on NH-12 (Neuroblastoma) was 0.0347; in assay [11], -0.112.

For `CC(=O)Nc1cccc(-n2c(=O)n(C3CC3)c(=O)c3c(Nc4ccc(I)cc4F)n(C)c(=O)c(C)c32)c1` [Trametinib] + Cc1nc(-c2cn3c(n2)-c2ccc(-c4cnn(C(C)(C)C(N)=O)c4)cc2OCC3)n(C(C)C)n1 [Taselisib] (first compound max 1 µM, 7x7, partner max 10 µM), the Bliss excess in the assay with GOTO (Neuroblastoma) is 0.0482; in assay [1], 0.123; in assay [2], -0.0509; in [3] it was 0.118; in [4], 0.135; in assay [5] it was 0.108. Also, the Bliss excess in [6] was 0.0528; in assay [7], 0.0597; in [8] it was 0.206; with EW-13 (Ewing's Sarcoma), -0.0107; in assay [9] it was 0.0674; in assay [10], 0.0114. Further, the Bliss excess is 0.011 in the assay with NH-12 (Neuroblastoma) and 0.151 in assay [11].

As to `Cc1c2c(nn1C)CSCc1cc(n(C)n1)CSc1cc(c3ccccc3c1)OCCCc1c(C(=O)O)n(C)c3c-2c(Cl)ccc13` [AZD5991] + CN(C)CCCOc1ccc(-c2ccc3ncc4c(c3c2)n(C2CCOCC2)c(=O)n4C)cn1 [AZD0156] (first compound max 1 µM, 7x7, partner max 1 µM), the Bliss excess in the assay with GOTO (Neuroblastoma) is -0.0418; in assay [1], -0.0143; in assay [2], -0.0504; in assay [3], -0.0479; in assay [4], -0.0188; in assay [5] it was -0.0031. For the same molecule, the Bliss excess is -0.0313 in assay [6]; 0.0263 in assay [7]; 0.0027 in assay [8]; -0.0024 in the assay with EW-13 (Ewing's Sarcoma); 0.0581 in assay [9]; -0.0007 in assay [10]. The Bliss excess in the assay with NH-12 (Neuroblastoma) is -0.0511; in [11], 0.0128.

`Cn1cnc2c(F)c(Nc3ccc(Br)cc3Cl)c(C(=O)NOCCO)cc21` [Selumetinib] + CCN(CCO)CCCOc1ccc2c(Nc3cc(CC(=O)Nc4cccc(F)c4)[nH]n3)ncnc2c1 [AZD2811] (first compound max 10 µM, 7x7, partner max 1 µM): the Bliss excess in the assay with GOTO (Neuroblastoma) was -0.0175; in assay [1] it was 0.0295; in [2], -0.0456; in assay [3], -0.0526; in assay [4], 0.0258; in [5], 0.005. The Bliss excess in assay [6] was 0.0094; in [7] it was 0.0258; in [8] it was 0.11; with EW-13 (Ewing's Sarcoma), -0.0108; in assay [9], -0.003; in assay [10], 0.0202. In addition, the Bliss excess in the assay on NH-12 (Neuroblastoma) was -0.0485; in assay [11], -0.0447.
